Laboratory results from patent publication US20250320213A1, “Nitrogen-Containing Heterocyclic Compounds” (Pfizer Inc., priority 2024, published 2025).

Legend:
[1] = tested on: CCL17 secretion in peripheral human whole blood; assay: Human Whole Blood (HWB) CCL17 TR-FRET Assay (IL-13 stimulated CCL17 secretion); assay type: cell-based; conditions: human whole blood, IL-13 stimulated
Procedure, shortened: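 IC50 comes from serum CCL17 measured by a TR-FRET sandwich assay (16 h at room temperature, 665/615 nm ratio). Beforehand, blood in sodium heparin was exposed to an 11-point, 3-fold compound series for 2 h at 37°C and then to 10 ng/mL IL-13 for 48 h.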

STAT6 = biological target: T1, STAT6 (Homo sapiens, UniProt P42226); assay: STAT6 Reporter Luciferase Assay (IL-13 stimulated HaCaT keratinocyte NanoLuc reporter cells); assay type: cell-based; conditions: IL-13 stimulated HaCaT STAT6 NanoLuc reporter cells; read-out: Reporter EC50
T1 construct: stably transfected HaCaT keratinocyte cell line, which expresses NanoLuc luciferase reporter gene under the transcriptional control of the STAT6 responsive promoter; endogenous in cells; host or cells: HaCaT keratinocyte reporter cell line (stably transfected with a NanoLuc reporter)
T1 sequence (P42226 1-847): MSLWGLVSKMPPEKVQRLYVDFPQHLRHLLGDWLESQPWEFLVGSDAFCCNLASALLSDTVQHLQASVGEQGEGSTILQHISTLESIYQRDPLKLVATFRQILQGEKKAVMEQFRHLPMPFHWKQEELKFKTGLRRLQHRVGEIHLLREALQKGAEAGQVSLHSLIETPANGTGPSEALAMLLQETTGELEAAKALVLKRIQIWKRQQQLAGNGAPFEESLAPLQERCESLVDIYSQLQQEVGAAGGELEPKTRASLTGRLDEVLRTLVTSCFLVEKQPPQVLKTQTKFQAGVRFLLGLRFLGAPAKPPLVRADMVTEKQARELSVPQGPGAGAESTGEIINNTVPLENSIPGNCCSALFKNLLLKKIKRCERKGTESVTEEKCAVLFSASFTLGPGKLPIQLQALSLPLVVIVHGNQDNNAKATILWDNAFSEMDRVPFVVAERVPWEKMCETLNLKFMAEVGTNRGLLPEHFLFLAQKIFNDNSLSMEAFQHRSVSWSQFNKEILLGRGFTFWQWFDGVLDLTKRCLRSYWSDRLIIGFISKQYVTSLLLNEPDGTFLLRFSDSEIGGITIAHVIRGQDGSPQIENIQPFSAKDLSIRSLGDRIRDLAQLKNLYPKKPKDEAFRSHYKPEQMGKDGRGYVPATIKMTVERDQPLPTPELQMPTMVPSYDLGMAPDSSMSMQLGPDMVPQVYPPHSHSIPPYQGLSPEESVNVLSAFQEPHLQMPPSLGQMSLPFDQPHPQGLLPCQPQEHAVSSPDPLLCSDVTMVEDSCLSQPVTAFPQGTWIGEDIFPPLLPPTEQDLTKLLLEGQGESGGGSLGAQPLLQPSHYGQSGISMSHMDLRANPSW
Procedure, shortened: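 Stably transfected HaCaT cells carrying NanoLuc under the STAT6-responsive IL-13Ra2 promoter were pre-treated with compound (11-point, 4-fold series, duplicate) for 2 h at 37 °C, then stimulated with 0.12 nM IL-13 for 4 h. Nano-Glo luminescence was read after 15 min.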

IC50 ([1]; 48 hours)	EC50 (STAT6)	IC50 ([1]; Homo sapiens, 48 h)	SMILES
334 nM	22 nM		CCn1nc(C(=O)NCc2ccc(NC(=O)N(C)C)cc2)c2c1C(C(F)(F)F)CN(c1ccc(C(=O)N(C)C)cn1)C2 (single isomer, unassigned) [Example 303, rel-(R or S)-5-(5-(dimethylcarbamoyl)pyridin-2-yl)-N-(4-(3,3-dimethylureido)benzyl)-1-ethyl-7-(trifluoromethyl)-4,5,6,7-tetrahydro-1H-pyrazolo[4,3-c]pyridine-3-carboxamide]
4 nM	0.3 nM		CCn1nc(C(=O)NCc2ccc(NC(=O)N(C)C)cc2)c2c1C(C(F)(F)F)CN(c1ccc(C(=O)N(C)C)cn1)C2 (single isomer, unassigned) [Example 304, rel-(R or S)-5-(5-(dimethylcarbamoyl)pyridin-2-yl)-N-(4-(3,3-dimethylureido)benzyl)-1-ethyl-7-(trifluoromethyl)-4,5,6,7-tetrahydro-1H-pyrazolo[4,3-c]pyridine-3-carboxamide]
	0.5 nM	7 nM	C[C@H]1CN(c2ccc(C(=O)N(C)C)cn2)Cc2c(C(=O)NCc3ccc(NC(=O)N(C)C)cc3)nn(CC(F)(F)F)c21 (single isomer, unassigned) [Example 307]
115 nM	8 nM		CCC1CN(c2ccc(C(=O)N(C)C)cn2)Cc2c(C(=O)NCc3ccc(NC(=O)N(C)C)cc3)nn(C(C)C)c21 (single isomer, unassigned) [Example 310, rel-(R or S)-5-(5-(dimethylcarbamoyl)pyridin-2-yl)-N-(4-(3,3-dimethylureido)benzyl)-7-ethyl-1-isopropyl-4,5,6,7-tetrahydro-1H-pyrazolo[4,3-c]pyridine-3-carboxamide]
11 nM	1 nM		CCC1CN(c2ccc(C(=O)N(C)C)cn2)Cc2c(C(=O)NCc3ccc(NC(=O)N(C)C)cc3)nn(C(C)C)c21 (single isomer, unassigned) [Example 311, rel-(R or S)-5-(5-(dimethylcarbamoyl)pyridin-2-yl)-N-(4-(3,3-dimethylureido)benzyl)-7-ethyl-1-isopropyl-4,5,6,7-tetrahydro-1H-pyrazolo[4,3-c]pyridine-3-carboxamide]
163 nM	10 nM		CCC1CN(c2ccc(C(=O)N(C)C)cn2)Cc2c(C(=O)NCc3ccc(NC(=O)N(C)C)cc3)nn(CC)c21 (single isomer, unassigned) [Example 312, rel-(R or S)-5-(5-(dimethylcarbamoyl)pyridin-2-yl)-N-(4-(3,3-dimethylureido)benzyl)-1,7-diethyl-4,5,6,7-tetrahydro-1H-pyrazolo[4,3-c]pyridine-3-carboxamide]
15 nM	1 nM		CCC1CN(c2ccc(C(=O)N(C)C)cn2)Cc2c(C(=O)NCc3ccc(NC(=O)N(C)C)cc3)nn(CC)c21 (single isomer, unassigned) [Example 313, rel-(R or S)-5-(5-(dimethylcarbamoyl)pyridin-2-yl)-N-(4-(3,3-dimethylureido)benzyl)-1,7-diethyl-4,5,6,7-tetrahydro-1H-pyrazolo[4,3-c]pyridine-3-carboxamide]
4 nM	0.4 nM		CCC(C)n1nc(C(=O)NCc2ccc(NC(=O)N(C)C)cc2)c2c1[C@@H](C)CN(c1ccc(C(=O)N(C)C)cn1)C2 (single isomer, unassigned) [Example 318, (S)-1-((R*)-sec-butyl)-5-(5-(dimethylcarbamoyl)pyridin-2-yl)-N-(4-(3,3-dimethylureido)benzyl)-7-methyl-4,5,6,7-tetrahydro-1H-pyrazolo[4,3-c]pyridine-3-carboxamide]
13 nM	1 nM		CCC(C)n1nc(C(=O)NCc2ccc(NC(=O)N(C)C)cc2)c2c1[C@@H](C)CN(c1ccc(C(=O)N(C)C)cn1)C2 (single isomer, unassigned) [Example 319, (S)-1-((R*)-sec-butyl)-5-(5-(dimethylcarbamoyl)pyridin-2-yl)-N-(4-(3,3-dimethylureido)benzyl)-7-methyl-4,5,6,7-tetrahydro-1H-pyrazolo[4,3-c]pyridine-3-carboxamide]
	1 nM	5 nM	CC(C)n1nc(C(=O)NCc2ccc(-c3ncc[nH]3)cc2)c2c1[C@@H](C)CN(c1ncc(C(=O)N(C)C)cn1)C2 (single isomer, unassigned) [Example 335]
	14 nM	41 nM	CCC1CN(c2ccc(C(=O)N(C)C)cn2)Cc2c(C(=O)NCc3ccc(NC(=O)N(C)C)cc3)nc(C)n21 (single isomer, unassigned) [Example 336, rel-(R or S)-7-(5-(dimethylcarbamoyl)pyridin-2-yl)-N-(4-(3,3-dimethylureido)benzyl)-5-ethyl-3-methyl-5,6,7,8-tetrahydroimidazo[1,5-a]pyrazine-1-carboxamide]
127 nM	83 nM		CC(CC#N)n1nc(C(=O)NCc2ccc(NC(=O)N(C)C)cc2)c2c1CCN(c1ccc(C(=O)N(C)C)cn1)C2 (single isomer, unassigned) [Example 347, rel-(R or S)-1-(1-cyanopropan-2-yl)-5-(5-(dimethylcarbamoyl)pyridin-2-yl)-N-(4-(3,3-dimethylureido)benzyl)-4,5,6,7-tetrahydro-1H-pyrazolo[4,3-c]pyridine-3-carboxamide]
36 nM	43 nM		CC(CC#N)n1nc(C(=O)NCc2ccc(NC(=O)N(C)C)cc2)c2c1CCN(c1ccc(C(=O)N(C)C)cn1)C2 (single isomer, unassigned) [Example 348, rel-(R or S)-1-(1-cyanopropan-2-yl)-5-(5-(dimethylcarbamoyl)pyridin-2-yl)-N-(4-(3,3-dimethylureido)benzyl)-4,5,6,7-tetrahydro-1H-pyrazolo[4,3-c]pyridine-3-carboxamide]
	0.3 nM	3 nM	CCn1nc(C(=O)NCc2ccc(NC(=O)N(C)C)cc2)c2c1[C@@H](C)[C@H](C)N(c1ccc(C(=O)N(C)C)cn1)C2 (single isomer, unassigned) [Example 352]
	4 nM	47 nM	CCn1nc(C(=O)NCc2ccc(NC(=O)N(C)C)cc2)c2c1[C@H](C)[C@@H](C)N(c1ccc(C(=O)N(C)C)cn1)C2 (single isomer, unassigned) [Example 353]
	4 nM	24 nM	CC(C)n1nc(C(=O)NCc2ccc(NC(=O)N(C)C)cc2)c2c1[C@H](C)[C@@H](C)N(c1ccc(C(=O)N(C)C)cn1)C2 (single isomer, unassigned) [Example 354]
	0.2 nM	3 nM	CC(C)n1nc(C(=O)NCc2ccc(NC(=O)N(C)C)cc2)c2c1[C@@H](C)[C@H](C)N(c1ccc(C(=O)N(C)C)cn1)C2 (single isomer, unassigned) [Example 355]
3310 nM	246 nM		CNC(=O)c1ccc(CNC(=O)c2nn(C(C)C)c3c2CN(c2ccc(C(=O)N(C)C)cn2)CC3C(F)(F)F)cc1 (single isomer, unassigned) [Example 356, rel-(R or S)-5-(5-(dimethylcarbamoyl)pyridin-2-yl)-1-isopropyl-N-(4-(methylcarbamoyl)benzyl)-7-(trifluoromethyl)-4,5,6,7-tetrahydro-1H-pyrazolo[4,3-c]pyridine-3-carboxamide]
